{"source": "patent US12173309B2", "about": "“Compounds for increasing genome editing efficiency” (Max-Planck-Gesellschaft zur Förderung der Wissenschaften …, priority 2017, dated 2024)", "system": "409-B2 iCRISPR-Cas9n hiPSCs", "assay": "BFP insertion (871 nt ssODN) efficiency in AAVS1 iCRISPR locus, microscopy", "format": "cell-based, human", "conditions": "7 days of BFP expression", "source_text": "FIG. 8: Impact of the CRISPY mix and its component NU7026 on BFP insertion (ssODN) efficacy in human induced pluripotent stem cells. The design of the mtagBFP2 (Subach et al. 2011) ssODN donor and the iCRISPR system is shown in (A). We inserted a 871 nt (including 50 nt homology arms) sequence coding for a 2A-self cleaving peptide in front of a Blue Fluorescent Protein (BFP), directly after the N-terminal nuclear localization signal sequence (NLS) of the Cas9n in the heterozygous AAVS1 iCRISPR locus (409-B2 iCRISPR-Cas9n hiPSCs). If the sequence is inserted, doxycycline will lead to expression of nucleus-imported BFP. […] Two images (50× magnification, white size bar 200 μm) from each of three technical replicates for the respective treatments were used to quantify the percentage of cells with BFP insertion using ImageJ (C).\n409-B2 iCRISPR-Cas9n hiPSCs were nucleofected with gRNAs and the Blue Fluorescent Protein (BFP) single stranded oligo (FIG. 8A, 330 ng) in […] for either mock, NU7026, and CRISPY mix treatment. […] Images were blinded and BFP positive nuclei were counted using the Adobe Photoshop CS5 counting tool. Propidium iodide positive nuclei were quantified using ImageJ by dividing the area of nuclei (default threshold) with the mean area of a single nucleus.", "data": [{"smiles": "O=c1cc(N2CCOCC2)oc2c1ccc1ccccc12", "note": "[NU7026]", "values": [{"measurement": "nuclei positive for BFP", "value": 6, "unit": "%"}, {"measurement": "increase of nuclei positive for BFP", "setting": "vs no-CRISPY control (3.7%)", "value": 1.6, "unit": "fold"}]}]}
